In article PMC10762662, “An orally-available monovalent SMAC mimetic compound as a broad-spectrum antiviral” (Protein & Cell, 2023):

Legend:
Test in all cases: BIR3 domain binding IC50 (assay format not stated)
[1] = target: T1, cIAP2 (Homo sapiens, UniProt Q13489)
T1 construct: gene BIRC3; BIR3 domain

[2] = target: T2, cIAP1 (Homo sapiens, UniProt Q13490)
T2 construct: gene BIRC2; BIR3 domain

[3] = target: T3, XIAP (Homo sapiens, UniProt P98170)
T3 construct: BIR3 domain
T3 sequence (P98170 241-356 limits assumed): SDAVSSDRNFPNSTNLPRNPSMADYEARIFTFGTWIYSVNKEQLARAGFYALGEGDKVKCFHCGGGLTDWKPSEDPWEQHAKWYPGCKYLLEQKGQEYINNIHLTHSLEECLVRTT

T1 sequence (Q13489 250-317 limits assumed): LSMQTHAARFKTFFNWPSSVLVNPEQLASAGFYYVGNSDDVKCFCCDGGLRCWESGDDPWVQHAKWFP
T2 sequence (Q13490 264-331 limits assumed): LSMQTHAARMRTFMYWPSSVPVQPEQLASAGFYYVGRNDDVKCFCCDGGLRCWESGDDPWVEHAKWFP

- IC50 [1]: 0.0171 ± 0.00537 µM
- IC50 [2]: 0.0009 ± 0.00015 µM
- IC50 [3]: 0.273 ± 0.0825 µM
SMILES: CN[C@@H](C)C(=O)Nc1ccc(-c2c(C)nc3ccccn23)c(C#Cc2ccc3ncccc3c2)n1 [BI-82]
